Measured values published in the kinase profiling compilation of Christmann-Franck et al. (2016).

Experiments:
Test in all cases: KINOMEscan competition binding
Settings in all cases: compound 10.0 µM; call rule not given here
[1] = biological target: STK33 (human) (UniProt Q9BYT3)
[2] = biological target: PHKG1 (human) (UniProt Q16816)
[3] = biological target: MYLK2 (human) (UniProt Q9H1R3)
[4] = biological target: PAK2 (human) (UniProt Q13177)
[5] = biological target: FLT4 (human) (UniProt P35916)
[6] = biological target: MAPK8 (human) (UniProt P45983)
[7] = biological target: BMX (human) (UniProt P51813)
[8] = biological target: ZAP70 (human) (UniProt P43403)
[9] = biological target: KIT (human) (UniProt P10721)
[10] = biological target: KDR (human) (UniProt P35968)
[11] = biological target: RPS6KA3 KD1 (human) (UniProt P51812)
[12] = biological target: RET (human) (UniProt P07949)
[13] = biological target: ACVR1 (human) (UniProt Q04771)
Sequence of ACVR1 (human) (Q04771 whole entry, looked up): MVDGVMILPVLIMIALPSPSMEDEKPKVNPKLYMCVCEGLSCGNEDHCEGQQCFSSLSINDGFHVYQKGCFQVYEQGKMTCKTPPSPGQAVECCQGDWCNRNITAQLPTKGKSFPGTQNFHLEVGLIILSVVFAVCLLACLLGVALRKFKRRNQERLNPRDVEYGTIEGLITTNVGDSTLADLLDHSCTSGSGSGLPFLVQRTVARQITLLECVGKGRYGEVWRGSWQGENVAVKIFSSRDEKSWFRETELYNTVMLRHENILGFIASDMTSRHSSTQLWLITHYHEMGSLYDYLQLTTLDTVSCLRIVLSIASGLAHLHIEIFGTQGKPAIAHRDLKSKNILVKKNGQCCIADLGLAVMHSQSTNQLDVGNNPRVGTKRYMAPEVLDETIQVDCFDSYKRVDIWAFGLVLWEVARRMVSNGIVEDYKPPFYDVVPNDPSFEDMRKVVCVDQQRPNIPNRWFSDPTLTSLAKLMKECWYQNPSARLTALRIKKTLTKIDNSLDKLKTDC

[14] = biological target: FER (human) (UniProt P16591)
[15] = tested on: EIF2AK4 KD2 (human), Q9P2K8 [S808G]
[16] = biological target: CSNK1D (human) (UniProt P48730)
[17] = biological target: CAMKK2 (human) (UniProt Q96RR4)
[18] = biological target: CAMK2B (human) (UniProt Q13554)
[19] = biological target: PRKG1 (human) (UniProt Q13976)
[20] = biological target: NLK (human) (UniProt Q9UBE8)
[21] = biological target: AURKB (human) (UniProt Q96GD4)
[22] = biological target: CSNK2A1 (human) (UniProt P68400)
[23] = biological target: PKN2 (human) (UniProt Q16513)
[24] = biological target: TNK2 (human) (UniProt Q07912)
Sequence of TNK2 (human) (Q07912 whole entry, looked up): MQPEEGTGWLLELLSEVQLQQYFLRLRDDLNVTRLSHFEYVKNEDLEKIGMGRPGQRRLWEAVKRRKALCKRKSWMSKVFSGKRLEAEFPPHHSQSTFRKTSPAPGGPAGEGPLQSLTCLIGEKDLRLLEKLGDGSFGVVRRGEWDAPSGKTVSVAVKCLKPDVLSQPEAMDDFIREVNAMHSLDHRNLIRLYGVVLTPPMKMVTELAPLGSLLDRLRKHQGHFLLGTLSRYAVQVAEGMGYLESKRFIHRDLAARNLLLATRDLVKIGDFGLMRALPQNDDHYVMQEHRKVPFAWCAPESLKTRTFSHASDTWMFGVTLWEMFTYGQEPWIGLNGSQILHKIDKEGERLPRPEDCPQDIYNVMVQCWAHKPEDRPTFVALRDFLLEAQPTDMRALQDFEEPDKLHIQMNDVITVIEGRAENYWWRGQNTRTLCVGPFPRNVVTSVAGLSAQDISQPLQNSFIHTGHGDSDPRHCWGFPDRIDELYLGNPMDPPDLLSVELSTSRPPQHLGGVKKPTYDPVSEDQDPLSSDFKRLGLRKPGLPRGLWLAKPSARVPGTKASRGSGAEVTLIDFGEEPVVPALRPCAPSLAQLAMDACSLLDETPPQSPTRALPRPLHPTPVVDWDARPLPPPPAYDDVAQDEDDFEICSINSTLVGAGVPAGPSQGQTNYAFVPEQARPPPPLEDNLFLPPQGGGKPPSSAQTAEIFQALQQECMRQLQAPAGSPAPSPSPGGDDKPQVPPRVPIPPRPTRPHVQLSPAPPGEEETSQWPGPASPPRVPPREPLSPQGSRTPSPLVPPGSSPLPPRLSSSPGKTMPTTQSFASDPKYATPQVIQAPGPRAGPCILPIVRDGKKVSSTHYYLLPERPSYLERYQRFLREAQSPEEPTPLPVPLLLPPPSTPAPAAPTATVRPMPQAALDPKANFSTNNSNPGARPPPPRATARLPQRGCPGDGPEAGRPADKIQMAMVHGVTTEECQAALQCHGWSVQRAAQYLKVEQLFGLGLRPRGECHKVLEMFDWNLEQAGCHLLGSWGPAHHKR

[25] = biological target: MAP4K4 (human) (UniProt O95819)
Sequence of MAP4K4 (human) (O95819 whole entry, looked up): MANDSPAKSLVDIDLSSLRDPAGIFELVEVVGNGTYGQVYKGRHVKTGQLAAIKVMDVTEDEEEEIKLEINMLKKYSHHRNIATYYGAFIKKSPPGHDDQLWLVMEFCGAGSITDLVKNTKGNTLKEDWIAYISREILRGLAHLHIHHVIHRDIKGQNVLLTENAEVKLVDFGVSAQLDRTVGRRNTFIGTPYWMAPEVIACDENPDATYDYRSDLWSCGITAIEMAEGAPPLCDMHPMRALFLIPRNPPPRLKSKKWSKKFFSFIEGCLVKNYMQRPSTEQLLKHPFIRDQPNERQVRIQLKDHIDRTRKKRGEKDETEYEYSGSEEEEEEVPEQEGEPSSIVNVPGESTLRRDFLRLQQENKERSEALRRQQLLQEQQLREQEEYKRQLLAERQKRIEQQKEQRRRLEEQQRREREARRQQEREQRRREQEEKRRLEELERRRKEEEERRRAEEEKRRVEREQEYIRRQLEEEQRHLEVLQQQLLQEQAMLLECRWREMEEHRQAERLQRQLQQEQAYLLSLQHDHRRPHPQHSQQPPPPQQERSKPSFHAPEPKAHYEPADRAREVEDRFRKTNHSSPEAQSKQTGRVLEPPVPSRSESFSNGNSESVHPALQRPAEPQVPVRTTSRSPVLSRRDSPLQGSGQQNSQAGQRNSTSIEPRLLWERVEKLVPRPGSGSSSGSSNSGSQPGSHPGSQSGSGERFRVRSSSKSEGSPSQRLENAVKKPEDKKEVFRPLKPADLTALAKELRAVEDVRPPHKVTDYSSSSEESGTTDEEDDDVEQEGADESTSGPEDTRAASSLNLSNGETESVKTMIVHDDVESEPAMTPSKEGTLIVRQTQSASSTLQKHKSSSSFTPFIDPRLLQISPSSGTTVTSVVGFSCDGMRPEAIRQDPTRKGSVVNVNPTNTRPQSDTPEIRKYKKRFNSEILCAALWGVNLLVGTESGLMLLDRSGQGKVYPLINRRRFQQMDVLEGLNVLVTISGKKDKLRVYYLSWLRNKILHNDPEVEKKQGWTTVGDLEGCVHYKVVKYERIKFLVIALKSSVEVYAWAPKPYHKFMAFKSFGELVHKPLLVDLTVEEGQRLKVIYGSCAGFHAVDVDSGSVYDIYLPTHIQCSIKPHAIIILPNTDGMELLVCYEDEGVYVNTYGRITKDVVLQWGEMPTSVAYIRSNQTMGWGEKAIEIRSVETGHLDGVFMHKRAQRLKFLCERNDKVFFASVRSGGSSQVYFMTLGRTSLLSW

[26] = biological target: MARK4 (human) (UniProt Q96L34)
Sequence of MARK4 (human) (Q96L34 whole entry, looked up): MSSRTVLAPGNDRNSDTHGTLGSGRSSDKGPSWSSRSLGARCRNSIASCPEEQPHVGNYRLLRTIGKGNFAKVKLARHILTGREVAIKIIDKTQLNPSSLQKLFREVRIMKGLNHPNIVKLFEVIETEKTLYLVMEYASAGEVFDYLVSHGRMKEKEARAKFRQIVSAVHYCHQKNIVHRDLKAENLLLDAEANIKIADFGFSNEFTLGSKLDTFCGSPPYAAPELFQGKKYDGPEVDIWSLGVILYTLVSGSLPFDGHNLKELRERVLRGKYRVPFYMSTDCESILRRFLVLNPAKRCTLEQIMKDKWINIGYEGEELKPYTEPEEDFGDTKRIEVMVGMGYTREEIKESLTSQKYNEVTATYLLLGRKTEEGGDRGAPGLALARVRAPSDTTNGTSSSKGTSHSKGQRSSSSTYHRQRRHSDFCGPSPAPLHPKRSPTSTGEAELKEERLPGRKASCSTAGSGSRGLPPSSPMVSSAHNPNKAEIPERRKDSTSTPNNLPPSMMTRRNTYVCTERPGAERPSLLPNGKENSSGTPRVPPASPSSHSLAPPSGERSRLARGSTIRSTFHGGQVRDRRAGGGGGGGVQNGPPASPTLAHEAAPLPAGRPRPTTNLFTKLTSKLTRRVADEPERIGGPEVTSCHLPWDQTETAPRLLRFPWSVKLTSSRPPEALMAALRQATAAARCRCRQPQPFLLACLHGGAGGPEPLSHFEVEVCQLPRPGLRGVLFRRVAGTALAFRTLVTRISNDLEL

[27] = biological target: ALK (human) (UniProt Q9UM73)
[28] = biological target: EPHA3 (human) (UniProt P29320)
[29] = biological target: TESK1 (human) (UniProt Q15569)
[30] = biological target: STK38L (human) (UniProt Q9Y2H1)
Sequence of STK38L (human) (Q9Y2H1 whole entry, looked up): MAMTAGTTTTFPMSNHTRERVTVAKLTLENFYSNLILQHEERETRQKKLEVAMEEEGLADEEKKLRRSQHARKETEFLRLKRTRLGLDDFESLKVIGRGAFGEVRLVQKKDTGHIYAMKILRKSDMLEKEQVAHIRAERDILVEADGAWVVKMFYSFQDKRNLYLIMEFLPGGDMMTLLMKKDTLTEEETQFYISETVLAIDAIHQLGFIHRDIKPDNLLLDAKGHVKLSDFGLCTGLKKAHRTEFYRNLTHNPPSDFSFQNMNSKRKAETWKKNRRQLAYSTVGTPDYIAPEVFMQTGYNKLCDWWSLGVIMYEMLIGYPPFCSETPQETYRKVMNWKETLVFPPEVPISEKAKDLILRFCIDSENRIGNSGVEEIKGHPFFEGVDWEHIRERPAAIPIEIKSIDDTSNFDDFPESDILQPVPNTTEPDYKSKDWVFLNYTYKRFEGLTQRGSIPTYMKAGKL

[31] = biological target: NTRK1 (human) (UniProt P04629)
[32] = biological target: CLK2 (human) (UniProt P49760)
[33] = biological target: PAK6 (human) (UniProt Q9NQU5)
[34] = biological target: FYN (human) (UniProt P06241)
[35] = biological target: ACVR2A (human) (UniProt P27037)
[36] = biological target: MAP3K11 (human) (UniProt Q16584)
[37] = biological target: LYN (human) (UniProt P07948)
Sequence of LYN (human) (P07948 whole entry, looked up): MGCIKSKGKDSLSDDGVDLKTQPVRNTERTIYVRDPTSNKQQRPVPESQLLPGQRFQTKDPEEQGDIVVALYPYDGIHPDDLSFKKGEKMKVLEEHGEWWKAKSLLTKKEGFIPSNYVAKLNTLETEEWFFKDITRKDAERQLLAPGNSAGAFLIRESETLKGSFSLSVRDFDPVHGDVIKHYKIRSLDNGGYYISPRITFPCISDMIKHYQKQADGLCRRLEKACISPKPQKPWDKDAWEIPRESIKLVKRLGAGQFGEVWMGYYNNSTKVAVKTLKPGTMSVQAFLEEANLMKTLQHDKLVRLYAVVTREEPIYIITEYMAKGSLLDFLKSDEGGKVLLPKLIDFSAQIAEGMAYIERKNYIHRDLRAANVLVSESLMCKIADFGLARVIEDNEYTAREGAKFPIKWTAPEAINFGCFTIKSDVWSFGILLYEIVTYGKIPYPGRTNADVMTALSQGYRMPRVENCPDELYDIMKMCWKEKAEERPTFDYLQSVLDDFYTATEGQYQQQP

[38] = biological target: CLK1 (human) (UniProt P49759)
[39] = biological target: CAMK1 (human) (UniProt Q14012)
Sequence of CAMK1 (human) (Q14012 whole entry, looked up): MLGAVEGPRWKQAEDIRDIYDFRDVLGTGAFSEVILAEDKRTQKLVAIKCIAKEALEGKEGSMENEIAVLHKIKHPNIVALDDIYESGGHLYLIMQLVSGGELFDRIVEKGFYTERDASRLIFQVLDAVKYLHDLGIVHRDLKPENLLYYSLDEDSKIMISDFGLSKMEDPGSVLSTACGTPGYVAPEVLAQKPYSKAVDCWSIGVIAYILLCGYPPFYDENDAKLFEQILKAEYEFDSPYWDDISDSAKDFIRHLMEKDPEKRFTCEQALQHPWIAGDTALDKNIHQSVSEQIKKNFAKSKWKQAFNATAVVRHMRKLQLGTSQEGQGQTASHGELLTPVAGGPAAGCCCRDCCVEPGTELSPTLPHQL

[40] = biological target: PRKAA2 (human) (UniProt P54646)
[41] = biological target: SYK (human) (UniProt P43405)

CCS(=O)(=O)Nc1ccc2c(c1)[C@H](/C(=N/c1ccc(CN3CCCCC3)cc1)c1ccccc1)C(=O)N2
kinase still bound, per cent of control [1]: 0% | kinase still bound, per cent of control [2]: 0.1% | kinase still bound, per cent of control [3]: 20.7% | kinase still bound, per cent of control [4]: no effect (inactive) | kinase still bound, per cent of control [5]: 0.1% | kinase still bound, per cent of control [6]: 0% | kinase still bound, per cent of control [7]: 1.4% | kinase still bound, per cent of control [8]: no effect (inactive) | kinase still bound, per cent of control [9]: 0.1% | kinase still bound, per cent of control [10]: 0% | kinase still bound, per cent of control [11]: 0% | kinase still bound, per cent of control [12]: 0% | kinase still bound, per cent of control [13]: 0.1% | kinase still bound, per cent of control [14]: 0% | kinase still bound, per cent of control [15]: 0% | kinase still bound, per cent of control [16]: no effect (inactive) | kinase still bound, per cent of control [17]: 0.1% | kinase still bound, per cent of control [18]: 4.6% | kinase still bound, per cent of control [19]: 0.15% | kinase still bound, per cent of control [20]: no effect (inactive) | kinase still bound, per cent of control [21]: 0% | kinase still bound, per cent of control [22]: 0% | kinase still bound, per cent of control [23]: 3% | kinase still bound, per cent of control [24]: 0% | kinase still bound, per cent of control [25]: 0.25% | kinase still bound, per cent of control [26]: 0% | kinase still bound, per cent of control [27]: 0% | kinase still bound, per cent of control [28]: 0% | kinase still bound, per cent of control [29]: 10.8% | kinase still bound, per cent of control [30]: 0% | kinase still bound, per cent of control [31]: 0% | kinase still bound, per cent of control [32]: 0% | kinase still bound, per cent of control [33]: 2.6% | kinase still bound, per cent of control [34]: 0% | kinase still bound, per cent of control [35]: 22.7% | kinase still bound, per cent of control [36]: 12.3% | kinase still bound, per cent of control [37]: 0.2% | kinase still bound, per cent of control [38]: 0% | kinase still bound, per cent of control [39]: 8.3% | kinase still bound, per cent of control [40]: 0% | kinase still bound, per cent of control [41]: 1.3%

CC(=O)c1c(-c2ccncc2)[nH]c(-c2ccncc2)c1C
kinase still bound, per cent of control [1]: no effect (inactive) | kinase still bound, per cent of control [2]: no effect (inactive) | kinase still bound, per cent of control [4]: no effect (inactive) | kinase still bound, per cent of control [5]: no effect (inactive) | kinase still bound, per cent of control [7]: no effect (inactive) | kinase still bound, per cent of control [8]: no effect (inactive) | kinase still bound, per cent of control [9]: no effect (inactive) | kinase still bound, per cent of control [10]: no effect (inactive) | kinase still bound, per cent of control [11]: no effect (inactive) | kinase still bound, per cent of control [12]: no effect (inactive) | kinase still bound, per cent of control [13]: no effect (inactive) | kinase still bound, per cent of control [14]: no effect (inactive) | kinase still bound, per cent of control [15]: no effect (inactive) | kinase still bound, per cent of control [16]: 0% | kinase still bound, per cent of control [17]: no effect (inactive) | kinase still bound, per cent of control [20]: no effect (inactive) | kinase still bound, per cent of control [21]: no effect (inactive) | kinase still bound, per cent of control [22]: no effect (inactive) | kinase still bound, per cent of control [23]: no effect (inactive) | kinase still bound, per cent of control [24]: no effect (inactive) | kinase still bound, per cent of control [25]: no effect (inactive) | kinase still bound, per cent of control [26]: no effect (inactive) | kinase still bound, per cent of control [27]: no effect (inactive) | kinase still bound, per cent of control [28]: no effect (inactive) | kinase still bound, per cent of control [29]: no effect (inactive) | kinase still bound, per cent of control [30]: no effect (inactive) | kinase still bound, per cent of control [31]: no effect (inactive) | kinase still bound, per cent of control [33]: no effect (inactive) | kinase still bound, per cent of control [34]: no effect (inactive) | kinase still bound, per cent of control [35]: no effect (inactive) | kinase still bound, per cent of control [36]: no effect (inactive) | kinase still bound, per cent of control [37]: no effect (inactive) | kinase still bound, per cent of control [39]: no effect (inactive) | kinase still bound, per cent of control [40]: no effect (inactive) | kinase still bound, per cent of control [41]: no effect (inactive)

c1ccc(-c2n[nH]cc2-c2ccnc3ccccc23)nc1
kinase still bound, per cent of control [1]: no effect (inactive) | kinase still bound, per cent of control [2]: no effect (inactive) | kinase still bound, per cent of control [3]: no effect (inactive) | kinase still bound, per cent of control [4]: no effect (inactive) | kinase still bound, per cent of control [5]: no effect (inactive) | kinase still bound, per cent of control [6]: no effect (inactive) | kinase still bound, per cent of control [7]: no effect (inactive) | kinase still bound, per cent of control [8]: no effect (inactive) | kinase still bound, per cent of control [9]: no effect (inactive) | kinase still bound, per cent of control [10]: no effect (inactive) | kinase still bound, per cent of control [11]: no effect (inactive) | kinase still bound, per cent of control [12]: no effect (inactive) | kinase still bound, per cent of control [13]: no effect (inactive) | kinase still bound, per cent of control [14]: no effect (inactive) | kinase still bound, per cent of control [15]: no effect (inactive) | kinase still bound, per cent of control [16]: 0% | kinase still bound, per cent of control [17]: no effect (inactive) | kinase still bound, per cent of control [18]: no effect (inactive) | kinase still bound, per cent of control [19]: no effect (inactive) | kinase still bound, per cent of control [20]: no effect (inactive) | kinase still bound, per cent of control [21]: no effect (inactive) | kinase still bound, per cent of control [22]: no effect (inactive) | kinase still bound, per cent of control [23]: no effect (inactive) | kinase still bound, per cent of control [24]: no effect (inactive) | kinase still bound, per cent of control [25]: no effect (inactive) | kinase still bound, per cent of control [26]: no effect (inactive) | kinase still bound, per cent of control [27]: no effect (inactive) | kinase still bound, per cent of control [28]: no effect (inactive) | kinase still bound, per cent of control [29]: no effect (inactive) | kinase still bound, per cent of control [30]: no effect (inactive) | kinase still bound, per cent of control [31]: no effect (inactive) | kinase still bound, per cent of control [32]: no effect (inactive) | kinase still bound, per cent of control [33]: no effect (inactive) | kinase still bound, per cent of control [34]: no effect (inactive) | kinase still bound, per cent of control [36]: no effect (inactive) | kinase still bound, per cent of control [37]: no effect (inactive) | kinase still bound, per cent of control [38]: no effect (inactive) | kinase still bound, per cent of control [39]: no effect (inactive) | kinase still bound, per cent of control [40]: no effect (inactive) | kinase still bound, per cent of control [41]: no effect (inactive)
